{
  "source": "patent US9861616B2",
  "about": "“Methods for treating respiratory diseases and formulations therefor” (priority 2013, dated 2018)",
  "key": {"[1]": {"tested_on": "B. cepacia strains from cystic fibrosis patients", "assay": "Macrobroth dilution MICs, CF strains", "type": "cell-based", "conditions": "2 B. cepacia strains from cystic fibrosis patients", "procedure": "(§1) Two strains each of mucoid P. aeruginosa (both pyocyanin positive) and […] MRSA (only one strain with gold colonies) isolated from patients at a CF clinic were tested. Additionally, 2 B. cepacia strains were acquired, from Hershey Medical Center. All strains were identified by standard methods. Only one strain per patient was tested. MLVA was done on all strains to examine clonality, and confirmed that examination is not taking place on only one or a few clones. Strains will be stored in skim milk at −70° C. until use.\n(§2) Original MICs of each strain to CEM-101 and other comparators were tested by CLSI microdilution methodology. Trays were obtained from Trek, Inc., Cleveland, Ohio. Time-kill macrobroth MIC dilution by CLSI was performed for all synergy testing."}, "[2]": {"tested_on": "P. aeruginosa strains from cystic fibrosis patients", "assay": "Macrobroth dilution MICs, CF strains", "type": "cell-based", "conditions": "2 P. aeruginosa strains from cystic fibrosis patients", "procedure": "as §1, §2"}, "[3]": {"tested_on": "MRSA SA 2230, SA 2232", "assay": "Time-kill macrobroth MICs", "type": "cell-based, S. aureus", "procedure": "as §2\n(§3) Two of the MRSA strains were chosen and tested for synergy, together with the 4 Gram-negative strains mentioned above. Broth macrodilution formed the basis of MICs used in time-kill experiments, as detailed below. The kill kinetics of each drug was tested alone by incubating an initial inoculum of 5×10^5 to 5×10^6 cfu/mL with drug concentrations at the MIC, three dilutions above and three dilutions below the MIC (½, ¼ and ⅛×MIC). Viability counts were performed after 0, 3, 6, 12 and 24 h incubation at 37° C. in a shaking water bath by plating onto trypticase soy-5% sheep blood agar plates."}, "[4]": {"tested_on": "B. cepacia BCEP 953, BCEP 954", "assay": "Time-kill macrobroth MICs", "type": "cell-based", "procedure": "as §2, §3"}, "[5]": {"tested_on": "P. aeruginosa PSAR 461, PSAR 468", "assay": "Time-kill macrobroth MICs", "type": "cell-based", "procedure": "as §2, §3"}, "[6]": {"tested_on": "MRSA strains from CF patients", "assay": "Microdilution MICs against 40 MRSA strains from CF patients", "type": "cell-based, S. aureus", "procedure": "as §1, §2"}, "[7]": {"conditions": "40 MRSA strains from CF patients"}, "[8]": {"conditions": "Staphylococcus aureus, 40 MRSA strains from CF patients, read-out: MIC50"}, "[9]": {"conditions": "Staphylococcus aureus, 40 MRSA strains from CF patients, read-out: MIC90"}},
  "note": "Like-named read-outs stand apart in the source and are kept apart here.",
  "data": [
    {"compound": "NCC[C@H](O)C(=O)N[C@@H]1C[C@H](N)[C@@H](O[C@H]2O[C@H](CN)[C@@H](O)[C@H](O)[C@H]2O)[C@H](O)[C@H]1O[C@H]1O[C@H](CO)[C@@H](O)[C@H](N)[C@H]1O", "note": "[Amikacin]", "values": [
      {"measurement": "MIC Range", "setting": "[1]", "value": 256, "unit": "µg/mL"},
      {"measurement": "MIC Range", "setting": "[2]", "value": "2 to 8", "unit": "µg/mL"},
      {"measurement": "Time-kill Macrobroth MIC", "setting": "[3]; strain SA 2230", "value": 32.0, "unit": "µg/mL"},
      {"measurement": "Time-kill Macrobroth MIC", "setting": "[3]; strain SA 2232", "value": 64.0, "unit": "µg/mL"},
      {"measurement": "Time-kill Macrobroth MIC", "setting": "[4]; strain BCEP 953", "value": 512, "unit": "µg/mL"},
      {"measurement": "Time-kill Macrobroth MIC", "setting": "[4]; strain BCEP 954", "value": 256, "unit": "µg/mL"},
      {"measurement": "Time-kill Macrobroth MIC", "setting": "[5]; strain PSAR 461", "value": 8.0, "unit": "µg/mL"},
      {"measurement": "Time-kill Macrobroth MIC", "setting": "[5]; strain PSAR 468", "value": 4.0, "unit": "µg/mL"}
    ]},
    {"compound": "CCCCCCCCCC(=O)N[C@@H](Cc1c[nH]c2ccccc12)C(=O)N[C@H](CC(N)=O)C(=O)N[C@@H](CC(=O)O)C(=O)N[C@@H]1C(=O)NCC(=O)N[C@@H](CCCN)C(=O)N[C@@H](CC(=O)O)C(=O)N[C@H](C)C(=O)N[C@@H](CC(=O)O)C(=O)NCC(=O)N[C@H](CO)C(=O)N[C@@H]([C@H](C)CC(=O)O)C(=O)N[C@@H](CC(=O)c2ccccc2N)C(=O)O[C@@H]1C", "note": "[Daptomycin]", "values": [
      {"measurement": "MIC Range", "setting": "[6]; [7]", "value": "0.5-1^ μg/mL"},
      {"measurement": "MIC50", "setting": "[6]; [8]", "value": 0.5, "unit": "µg/mL"},
      {"measurement": "MIC90", "setting": "[6]; [9]", "value": 1, "unit": "µg/mL"}
    ]},
    {"compound": "CN[C@H](CC(C)C)C(=O)N[C@H]1C(=O)N[C@@H](CC(N)=O)C(=O)N[C@H]2C(=O)N[C@H]3C(=O)N[C@H](C(=O)N[C@H](C(=O)O)c4cc(O)cc(O)c4-c4cc3ccc4O)[C@H](O)c3ccc(c(Cl)c3)Oc3cc2cc(c3O[C@@H]2O[C@H](CO)[C@@H](O)[C@H](O)[C@H]2O[C@H]2C[C@](C)(N)[C@H](O)[C@H](C)O2)Oc2ccc(cc2Cl)[C@H]1O", "note": "[Vancomycin]", "values": [
      {"measurement": "MIC Range", "setting": "[6]; [7]", "value": "0.5-1^ μg/mL"},
      {"measurement": "MIC50", "setting": "[6]; Staphylococcus aureus, MRSA", "value": 0.5, "unit": "µg/mL"},
      {"measurement": "MIC90", "setting": "[6]; Staphylococcus aureus, MRSA", "value": 1, "unit": "µg/mL"}
    ]},
    {"compound": "Teicoplanin", "values": [
      {"measurement": "MIC50", "setting": "[6]; [7]", "value": 0.5, "unit": "µg/mL"},
      {"measurement": "MIC90", "setting": "[6]; [7]", "value": 1, "unit": "µg/mL"},
      {"measurement": "MIC Range", "setting": "[6]; [7]", "value": "0.25 to 1", "unit": "µg/mL"}
    ]},
    {"compound": "NC[C@H]1O[C@H](O[C@H]2[C@H](O)[C@@H](O[C@H]3O[C@H](CO)[C@@H](O)[C@H](N)[C@H]3O)[C@H](N)C[C@@H]2N)[C@H](N)C[C@@H]1O", "note": "[Tobramycin]", "values": [
      {"measurement": "MIC Range", "setting": "[1]", "value": 128, "unit": "µg/mL"},
      {"measurement": "MIC Range", "setting": "[2]", "value": "0.25 to 1.0", "unit": "µg/mL"},
      {"measurement": "Time-kill Macrobroth MIC", "setting": "[3]; strain SA 2230", "value": 4.0, "unit": "µg/mL"},
      {"measurement": "Time-kill Macrobroth MIC", "setting": "[3]; strain SA 2232", "value": "> 512", "unit": "µg/mL"},
      {"measurement": "Time-kill Macrobroth MIC", "setting": "[4]; strain BCEP 953", "value": 128, "unit": "µg/mL"},
      {"measurement": "Time-kill Macrobroth MIC", "setting": "[4]; strain BCEP 954", "value": 128, "unit": "µg/mL"},
      {"measurement": "Time-kill Macrobroth MIC", "setting": "[5]; strain PSAR 461", "value": 2.0, "unit": "µg/mL"},
      {"measurement": "Time-kill Macrobroth MIC", "setting": "[5]; strain PSAR 468", "value": 1.0, "unit": "µg/mL"}
    ]},
    {"compound": "CN(C)c1cc(NC(=O)CNC(C)(C)C)c(O)c2c1C[C@H]1C[C@H]3[C@H](N(C)C)C(O)=C(C(N)=O)C(=O)[C@@]3(O)C(O)=C1C2=O", "note": "[Tigecycline]", "values": [
      {"measurement": "MIC Range", "setting": "[6]; [7]", "value": "0.12 to 0.25", "unit": "µg/mL"},
      {"measurement": "MIC50", "setting": "[6]; Staphylococcus aureus, MRSA", "value": 0.12, "unit": "µg/mL"},
      {"measurement": "MIC90", "setting": "[6]; Staphylococcus aureus, MRSA", "value": 0.25, "unit": "µg/mL"}
    ]},
    {"compound": "CC(=O)NC[C@H]1CN(c2ccc(N3CCOCC3)c(F)c2)C(=O)O1", "note": "[Linezolid]", "values": [
      {"measurement": "MIC Range", "setting": "[6]; [7]", "value": "1 to 4", "unit": "µg/mL"},
      {"measurement": "MIC50", "setting": "[6]; [8]", "value": 2, "unit": "µg/mL"},
      {"measurement": "MIC90", "setting": "[6]; [9]", "value": 2, "unit": "µg/mL"}
    ]}
  ]
}
